Entries after “also recorded” stand apart in the source; their conditions may differ. Values belong to the compound of their own block, whether it stands above or below them.
Key:
RbAp48 [1] = target: T1, RbAp48 (Homo sapiens, UniProt Q09028); experiment: GST pulldown of in vitro translated 35S-RbAp48 by GST-MTA1 fragments; assay type: binding; settings: GST-MTA1 fusion on glutathione-Sepharose beads with in vitro translated 35S-labeled RbAp48, 2 h, 4 °C; SDS-PAGE and autoradiography
T1 construct: made in house; host or cells: insect cells
Source text: FLAG-tagged human RbAp48 (Uniprot: Q09028) was constructed by PCR and cloned into pcDNA3. MTA1 constructs (residues 1–250, 230–550, and 530–715) were generated by PCR amplification of the human gene (Uniprot: Q13330) and cloned into pcDNA3. MTA1 constructs (residues 530–635, 625–715, 643–695, and 656–686) were created by PCR amplification from codon-optimized sequences for bacterial expression (GenScript) and cloned into pGEX-6P with an N-terminal GST tag.
pcDNA3 constructs were expressed in vitro in the presence of [^35S]methionine. GST-MTA1 constructs were expressed in the BL21 strain of Escherichia coli and induced with 0.4 mM isopropyl 1-thio-β-D-galactopyranoside. The culture was incubated with shaking at 25 °C overnight, and the protein was subsequently purified by glutathione affinity chromatography. GST-H4-(1–48) was expressed and purified by glutathione affinity chromatography as described previously ([16]). Recombinant RbAp48 was expressed and purified from insect cells as described previously ([17]).
GST pulldown assays were performed by incubating equal amounts of GST or GST-MTA1 fusion proteins immobilized on glutathione-Sepharose beads (Amersham Biosciences) with in vitro translated ^35S-labeled RbAp48. The mixtures were incubated for 2 h at 4 °C and washed 5 times with binding buffer. Complexes were resolved by SDS-PAGE and visualized by autoradiography.

RbAp48 [2] = target: T1, RbAp48; experiment: Isothermal titration calorimetry (ITC) of MTA1 peptides binding to RbAp48; settings: MicroCal iTC200, 25 °C, 20 mM Tris, pH 7.5, 150 mM NaCl, MTA1 peptide (250 μM) titrated into RbAp48 (25 μM, 200 μl), 20 injections of 2 μl, single-site 1:1 fit, representative measurement, standard error from single curve fit, each titration in duplicate, read-out: dissociation constant (KD)
Protocol: pcDNA3 constructs were expressed in vitro in the presence of [^35S]methionine. […] GST-H4-(1–48) was expressed and purified by glutathione affinity chromatography as described previously ([16]). Recombinant RbAp48 was expressed and purified from insect cells as described previously ([17]).
ITC measurements were carried out at 25 °C using a MicroCal iTC200 titration calorimeter. […] The reference power was set to 2 μcal/s, and the cell was stirred continuously at 1000 rpm. The evolved heats were integrated and normalized for protein concentration.

MTA1-RbAp48 complex [3] = experiment: Competition pulldown: FOG1-(1–15) peptide added to MTA1-FLAG-RbAp48 complex; assay type: binding, human; settings: FLAG-RbAp48 on anti-FLAG beads; for effect of FOG1 peptide on MTA1-RbAp48 interaction: increasing amounts of FOG1-(1–15) peptide
Protocol: RbAp48 and MTA1 constructs were in vitro translated in the presence of ^35S-labeled methionine using the TNT Quick Coupled Transcription/Translation kit (Promega) according to the manufacturer's instructions. In vitro translated ^35S-labeled FLAG-RbAp48 (20 μl) was immobilized onto agarose beads conjugated to anti-FLAG (M2) antibodies (Sigma) in binding buffer (50 mM Tris, pH 7.5, 300 mM NaCl, 0.5% Triton X-100, complete protease inhibitor mixture tablet (Roche Applied Science), and 1 mM DTT). The mixture was incubated with in vitro translated ^35S-labeled-MTA1 fragments (40 μl) at 4 °C for 2 h. The beads were then washed five times with binding buffer. Anti-FLAG beads alone were used as a negative control. Complexes were resolved by SDS-PAGE and visualized by autoradiography.
(§1) The structural data provide clear evidence that histone H4 and MTA1 bind mutually exclusively to RbAp48. […] Competition-binding experiments were performed to assess whether full-length MTA1 might inhibit the interaction of RbAp48 with H3 or FOG1 peptides and to confirm that H4 and MTA1 bind mutually exclusively to RbAp48. GST-H4-(1–48) was expressed in bacteria, immobilized onto glutathione beads, and used to pull down RbAp48 in the absence and presence of full-length MTA1 (Fig. 7A). In a complementary experiment (Fig. 7B), in vitro translated FLAG-RbAp48 was immobilized on anti-FLAG beads and used to pull down MTA1 in the absence and presence of histone H4-(1–48).
(§2) FIGURE 7. […] A, pulldown showing the binding of in vitro translated ^35S-labeled RbAp48 to GST-histone H4-(1–48) (immobilized on glutathione beads) in the absence and presence of in vitro translated MTA1. B, pulldown showing the binding of in vitro translated ^35S-labeled MTA1 to FLAG-RbAp48 (immobilized on anti-FLAG beads) in the absence and presence of histone H4-(1–48). C, pulldown assays showing the effect of adding increasing amounts of FOG1-(1–15) peptide to a complex formed between in vitro translated ^35S-labeled FLAG-RbAp48 (immobilized on anti-FLAG beads) and in vitro translated ^35S-labeled full-length MTA1 or MTA1-(530–715). […]

RbAp46/48 = settings: GST pulldown; ref [47]; cited from earlier work
Source text: Previous studies using GST pulldown assays have mapped the domains that mediate the interaction between MTA1/2 and RbAp46/48. […] Our crystallographic and biochemical data reveal that a short motif near the C-terminal end of MTA1 is able to bind ind ...

[4] = test system: RbAp46 mutant (E356Q, D357N, E359Q, D360N, L30Y); settings: D360N and L30Y; cited from earlier work
MTA1-RbAp48 complex [5] = experiment: Competition pulldown: FLAG-RbAp48 pulls down MTA1 in absence and presence of histone H4-(1–48); assay type: binding, human; settings: FLAG-RbAp48 on anti-FLAG beads, in vitro translated 35S-labeled MTA1, absence and presence of histone H4-(1–48)
Protocol: as §1, §2

RbAp46 = settings: for RbAp46; ref [16]; cited from earlier work

T1 sequence (Q09028 whole entry, the tested form may be a part): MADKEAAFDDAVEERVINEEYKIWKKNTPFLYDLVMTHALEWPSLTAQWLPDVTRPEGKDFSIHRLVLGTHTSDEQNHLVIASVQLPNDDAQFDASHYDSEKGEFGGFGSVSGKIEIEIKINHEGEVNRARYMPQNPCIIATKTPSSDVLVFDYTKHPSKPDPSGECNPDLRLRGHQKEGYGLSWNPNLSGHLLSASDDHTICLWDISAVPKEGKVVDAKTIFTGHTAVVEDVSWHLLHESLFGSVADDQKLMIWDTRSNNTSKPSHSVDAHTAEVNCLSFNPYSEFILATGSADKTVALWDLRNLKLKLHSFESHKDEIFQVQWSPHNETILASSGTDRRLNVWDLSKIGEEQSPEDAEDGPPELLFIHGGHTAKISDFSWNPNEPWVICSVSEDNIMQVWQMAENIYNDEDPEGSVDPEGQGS

Compound: CC[C@H](C)[C@H](NC(=O)[C@H](CCCCN)NC(=O)[C@H](CCCNC(=N)N)NC(=O)[C@@H](NC(=O)[C@H](CCC(=O)O)NC(=O)[C@H](CCC(=O)O)NC(=O)[C@@H](NC(=O)[C@H](C)NC(=O)[C@H](CCSC)NC(=O)[C@H](Cc1ccc(O)cc1)NC(=O)[C@H](Cc1ccccc1)NC(=O)[C@@H](NC(=O)[C@H](CC(=O)O)NC(C)=O)C(C)C)[C@@H](C)O)[C@@H](C)O)C(=O)N[C@@H](CCCNC(=N)N)C(=O)N[C@@H](CCCCN)C(=O)N[C@@H](CC(C)C)C(=O)N[C@@H](CC(C)C)C(=O)N[C@@H](CO)C(=O)N[C@@H](CO)C(=O)N[C@@H](CO)C(=O)N[C@@H](CCC(=O)O)C(=O)N[C@H](C(=O)N[C@@H](CCCCN)C(=O)N[C@@H](CCCNC(=N)N)C(=O)N[C@@H](C)C(=O)N[C@@H](C)C(=O)N[C@@H](CCCNC(=N)N)C(=O)N[C@@H](CCCNC(=N)N)C(=O)N1CCC[C@H]1C(=O)N[C@@H](Cc1ccc(O)cc1)C(=O)N[C@@H](CCCCN)C(N)=O)[C@@H](C)O [MTA1-(656–686)]
- binding to RbAp48 in GST pulldown (RbAp48 [1]): sufficient to bind RbAp48; also recorded: shortest fragment of MTA1 capable of pulling down in vitro translated RbAp48

- Kd (RbAp48 [2]): 50 ± 7 nM
Compound: Ac-KLLSSSETKRAARRPYKPIALRQSQA-NH2 [MTA1-(670–695)]

- competition for binding to RbAp48 (Fig. 7 title) (MTA1-RbAp48 complex [3]; Fig. 7, full-length MTA1 or MTA1-(530–715)): do not compete for binding to RbAp48
Compound: FOG1-(1–15): peptide (residues 1–15) derived from the co-regulator FOG1
- effect of FOG1 peptide on MTA1-RbAp48 interaction (MTA1-RbAp48 complex [3]; C-terminal MTA1 fragment (residues 530–715)): The same result was observed
- effect of FOG1 peptide on MTA1-RbAp48 interaction (MTA1-RbAp48 complex [3]; full-length MTA1): unable to interfere with the MTA1-RbAp48 interaction

Compound: GATA-type zinc finger domain of MTA1 (residues 392–448): predicted GATA-type zinc finger domain of MTA1 (ACESCYTTQSYQWYSWGPPNMQCRLCASCWTYWKKYGGLKMPTRLDGERPGPNRSNM; GATA-type zinc finger; UniProt Q13330 392-448, looked up, fragment)
- recognition of RbAp46/48 (RbAp46/48): sufficient to recognize RbAp46/48

Compound: GST-tagged H4 (residues 1–48): GST-H4-(1–48) expressed in bacteria and purified by glutathione affinity chromatography
- effect of RbAp46 mutations on interaction with H4 [4]: abrogate its interaction

Compound: H4-(1–48): histone H4 residues 1–48
- competition of histone H4 with MTA1 for RbAp48 (MTA1-RbAp48 complex [5]): compete for the same binding surface on RbAp48
- Kd (RbAp46): 1000 nM
